Data from US8247449B2, “Methods and compositions for the treatment of asthma” (Wake Forest University, priority 1998, dated 2012).
pIC50: −log10 of the molar value. “Also recorded” adds a separate entry of the source. Read-outs that look alike come from different tables or passages of the source.

Legend:
[1] = tested on: human neutrophils; experiment: In vitro metabolism of stearidonic acid in cultured human neutrophils; type: cell-based; details: 24 h
From the text: As described above, human neutrophils (in vitro in overnight culture) will take up GLA and elongate it to DGLA but not further desaturate that DGLA to AA. An alternative route to depleting AA in neutrophils may also be useful in modulating the inflammatory responses mediated by AA and its metabolites. It was contemplated that the n-3 fatty acid, stearidonic acid (18:4) would also be elongated in neutrophils to form ω-3 arachidonic acid (FIG. 1). Varying concentrations of stearidonic acid were provided to cultured neutrophils for 24 h. Lipids were extracted and the quantities of fatty acids determined after base hydrolysis using GC/MS.

[2] = tested on: leukotriene generation by stimulated neutrophils; experiment: Inhibition of leukotriene generation in A23187-stimulated neutrophils in vitro; type: cell-based, human; details: neutrophils from unsupplemented volunteers, ionophore A23187, read-out: IC50 of inhibition of leukotriene generation (LTB4 and 20-OH LTB4)
Method: (§1) Leukotrienes are separated by reverse phase HPLC utilizing an Ultrasphere ODS column (2.1 mm.×250 mm: Rainin Instrument Co, Woburn, Mass.) eluted with methanol/water/phosphoric acid (550:450:0.2 v/v, pH 5.7) as the mobile phase at 0.3 ml/min. After 5 min the methanol composition of the mobile phase is increased from 55% to 100% over a 20 min period. The mole quantities of each leukotriene are determined by examining its UV optical density at 270 nm. Individual peaks are integrated and their recoveries normalized by comparing these integrated areas to that of PGB2 added as an internal standard.
It is contemplated that neutrophils may also produce 8-hydroxy-9,11,14 […] from DGLA. […] Studies were also designed to examine whether 15-HETrE produced by neutrophils might influence LTB4 generation. […] Neutrophils were isolated from normal unsupplemented volunteers and were treated with various concentrations of 15-HETrE and then stimulated with ionophore A23187.

[3] = in vivo
Method: Serum is extracted from 2 ml of venous blood from donors. Briefly, blood samples are incubated at 37° C. for 30 min. Blood clots are removed from the serum by centrifugation (600×g, 10 min). Residual red blood cells are removed from the serum by centrifugation using a Beckman Microfuge E for 5 min. After the addition of 1.9 ml of water to a 0.1 ml aliquot of the serum, lipids are extracted by the method of Bligh and Dyer (Bligh and Dyer, Can. J. Biochem. Physiol., 37:911-920, 1959); Chilton et al., J. Biol. Chem., 258:7268-7271, 1983). A portion (5%) of the extracted lipids is used to determine the mole quantities of fatty acids by GC/MS. Serum components are isolated into individual glycerolipid classes by TLC (System II or normal phase HPLC (Bligh and Dyer, 1959).
Free fatty acids are obtained from glycerolipids by base hydrolysis using 2 N KOH (30 min, 60° C.). […] The carboxylate anion of all fatty acids of interest and [^2H3]-stearic acid and [^2H8]-arachidonate (internal standard) are analyzed by NICI GC/MS using a Hewlett Packard mass spectrometer (HP 5989A). […]
The next set of studies was designed to determine the distribution of supplemented fatty acids or their metabolites within individual glycerolipid classes of serum. […] Serum glycerolipids were separated by TLC and fractions were analyzed for fatty acid content following base hydrolysis by NICI-GC/MS.

[4] = tested on: neutrophils; details: 3.0 g/day GLA
From the text: A final set of studies measured changes in the capacity of neutrophils to generate PAF ex vivo before and after GLA supplementation.

[5] = tested on: neutrophils; details: 3.0 g/day GLA; remark: listed apart in the source
Method: as §1
To examine this question, neutrophils were stimulated and the synthesis of LTB4, 20-OH LTB4, and the 6 trans isomers of LTB4 were measured by reverse phase HPLC analysis.

[6] = tested on: atopic asthmatics
From the text: Clinical data on each patient is entered into a database consisting of the following elements. Demographic data (age, sex, race, smoking history), and the data elements used to fulfill the above diagnostic criteria, spirometric data, presence of atopy (positive “prick” skin testing to respirable antigens), presence of LAR to inhaled antigen, and presence of allergic rhinoconjunctivitis. • Allergen skin testing—Atopic asthmatic subjects are identified by skin testing using the skin prick method at a 1:10 (wt/vol) dilution of 20 stock antigen solutions (Greer Laboratories, Lenoir, N.C.). Subjects must not be receiving immunotherapy, nor may they be treated with systemic corticosteroids for a minimum of 4 wk. Short acting antihistamines are avoided for at least 24 h and long acting for at least 7 days. Atopic subjects are defined as those with a positive response consisting of a wheal of at least 3 by 3 mm to one or more antigens, with an appropriately negative saline control. • Allergen Inhalation Challenge—The immediate (early) asthmatic response (EAR) or late asthmatic response (LAR) is studied under controlled conditions using inhaled antigenic challenge in volunteer patients with asthma using a previously described protocol (Smith et al., Clin. Pharm. Ther., 54:430-436, 1993). Atopic asthmatics undergo inhaled allergen challenge followed by BAL according to the following protocol. Subjects must have no lung disease other than asthma, and, on the day of testing, must have a baseline FEV1>70% of predicted. Subjects must not be receiving immunotherapy, nor may they be treated with cromolyn sodium or corticosteroids (inhaled or systemic) or leukotriene antagonist for a minimum of 4 wk. Short-acting antihistamines are avoided for at least 24 h and intermediate acting for 7 days (astemizole for 6 weeks). Theophylline preparations are withheld for 24 h prior to challenge and beta-agonists for 8 h prior to challenge. On the day of challenge, subjects must be wheeze-free, with an FEV1>than 80% of the previously observed highest value. If the patient has an intercurrent respiratory infection, inhalation challenge is postponed for at least 6 wk. Antigens to which the subject is perennially exposed (e.g., mite, cat) are utilized whenever possible to minimize the impact of seasonal variations in environmental exposure to the specific antigen. Further, antigen testing is conducted out of the respective allergen season, or after attempts to minimize environmental exposure (e.g., to mites or cats) have been implemented. Antigenic challenge generally begins between 7:30 and 8:00 am and the patient is monitored for a minimum of 12 h following antigenic challenge. […] The subject breathes quietly from a continuous hand-held nebulizer for 2 min at each concentration. Following each concentration, the FEV1 is measured at 5 min intervals (DS Plus, Warren E. Collins, Inc., Braintree, Mass.). […] Once a 20% drop in FEV1 is measured, or following the highest concentration, spirometry is performed every 15 min for the first hour and then hourly for the next 11 h.

[7] = tested on: neutrophils
Method: Free fatty acids are obtained from glycerolipids by base hydrolysis using 2 N KOH (30 min, 60° C.). After the addition of an equal volume of water, the pH of the reaction mixture is adjusted to 3 using 6 N HCl. Free fatty acids are then extracted with ethyl ether and converted to pentafluorobenzylesters using an equal volume of 20% pentafluorobenzylchloride in acetonitrile and 20% diisopropylethylamine in acetonitrile. The carboxylate anion of all fatty acids of interest and [^2H3]-stearic acid and [^2H8]-arachidonate (internal standard) are analyzed by NICI GC/MS using a Hewlett Packard mass spectrometer (HP 5989A).
Neutrophils were next obtained from subjects before and after supplementation and stimulated with ionophore A23187.

[8] = tested on: human eosinophils; details: eosinophils from atopic subjects incubated with GLA
Method: Eosinophils are purified by negative, immunomagnetic selection using monoclonals against FcKRIII (CD 16) present on neutrophils. Antibody tagged neutrophils are then incubated with anti-mouse IgG conjugated magnetic beads and removed by filtration over a magnetized steel wool column.
Therefore, it was important to determine how GLA was metabolized by human eosinophils. Thus, eosinophils were isolated from atopic subjects and incubated with GLA as described above.

[9] = tested on: human neutrophils; experiment: In vitro metabolism of GLA / DGLA in cultured human neutrophils; type: cell-based
Method: It is generally assumed that the liver has a key role in the in vivo elongation and desaturation of n-6 fatty acids. However, the role of other cells (especially inflammatory cells) and tissues has not been extensively studied. In addition, it is critical to evaluate the mechanism of leukotriene inhibition in less complex (than in vivo model) systems. To begin to address these problems, the inventor developed a model in which neutrophils could be incubated long-term with fatty acids or other fatty acid derivatives. Human neutrophils have been isolated and cultured overnight in RPMI, 2% insulin-transferrin and fetal bovine serum (FBS). In initial studies, varying concentrations of GLA (complexed to albumin) were provided to these cultured neutrophils for 24 h. […] In contrast, there was no change in the quantity of AA in neutrophil phospholipids. […] Furthermore, they provide direct evidence that the neutrophils themselves can elongate GLA […].
It has been long recognized that arachidonate is hydrolyzed from membrane glycerolipids by phospholipase A2 isotypes during cell stimulation. However, to date, there is little direct evidence that similar mechanisms exist to mobilize DGLA. To examine this question, neutrophils that had been cultured with varying concentrations of GLA (0 to 200 nmol) were stimulated with ionophore A23187, and mobilized fatty acids were measured by NICI GC/MS. […] To determine if neutrophils can further metabolize DGLA to oxygenated products, stimulated cells were provided [^14C]-DGLA and products were measured by reverse HPLC. […] FIG. 11 illustrates that A23187 stimulated neutrophils produce a labeled product that migrated with 15-HETrE.

[10] = tested on: atopic asthmatics; experiment: Inhaled antigen challenge model of atopic asthma with prednisone; type: in vivo, human; details: 40 mg prednisone daily for 7 days
From the text: Clinical data on each patient is entered into a database consisting of the following elements. Demographic data (age, sex, race, smoking history), and the data elements used to fulfill the above diagnostic criteria, spirometric data, presence of atopy (positive “prick” skin testing to respirable antigens), presence of LAR to inhaled antigen, and presence of allergic rhinoconjunctivitis. • Allergen skin testing—Atopic asthmatic subjects are identified by skin testing using the skin prick method at a 1:10 (wt/vol) dilution of 20 stock antigen solutions (Greer Laboratories, Lenoir, N.C.). Subjects must not be receiving immunotherapy, nor may they be treated with systemic corticosteroids for a minimum of 4 wk. Short acting antihistamines are avoided for at least 24 h and long acting for at least 7 days. […] Antigenic challenge generally begins between 7:30 and 8:00 am and the patient is monitored for a minimum of 12 h following antigenic challenge. […] Following each concentration, the FEV1 is measured at 5 min intervals (DS Plus, Warren E. Collins, Inc., Braintree, Mass.). […] Once a 20% drop in FEV1 is measured, or following the highest concentration, spirometry is performed every 15 min for the first hour and then hourly for the next 11 h.

[11] = tested on: Δ^5 desaturase in human liver cell line HEP-G2; experiment: Inhibition of DGLA conversion to AA (Δ5 desaturase) in HEP-G2 liver cells; type: cell-based; details: HepG2, HEP-G2, EPA at 50 μM added with DGLA, read-out: maximum inhibition of DGLA conversion to AA
From the text: This study illustrates the effectiveness of adding a Δ^5 desaturase inhibitor in conjunction with GLA in order to reduce serum arachidonic acid.

[12] = 4.5 g GLA as borage oil, 3 weeks, contemplated

## CC/C=C\C/C=C\C/C=C\C/C=C\CCCCC(=O)O [stearidonic acid]
[1]
  AA in neutrophils: nor was there an increase
  eicosapentaenoic acid (Δ5 desaturase product of ω-3 arachidonic acid) in neutrophils: no increase
[1]; varying concentrations of stearidonic acid
  ω-3 arachidonic acid in neutrophil glycerolipids: dose-dependent increase; also recorded: dramatic increase

## CCCCCC(O)/C=C/C=C\C/C=C\CCCCCCC(=O)O (centres unmarked) [15-HETrE, 15-OH-20:3, reference compound]
[2]
  pIC50: ~5.30

## CCCCC/C=C\C/C=C\C/C=C\CCCCC(=O)O [GLA, gammalinolenic acid]
[3]
  AA in serum lipids vs baseline: significantly increased
[4]
  reduction in PAF produced by neutrophils vs before supplementation: 40%
[5]
  20-OH LTB4, 6-trans LTB4 and 6-trans 12-epi LTB4 levels after supplementation: decreased to a similar degree
  reduction in LTB4 produced by stimulated neutrophils vs before supplementation: 60%
[6]; [12]
  antigen-induced urinary LTE4 and BALF AA increases: attenuate
  influx of eosinophils into airways during the LAR: reduce
  response to antigen challenge (decrements in FEV1, immediate and late): mitigate
[6]; four weeks GLA supplementation, compared to pre- and post-supplementation, two subjects
  magnitude of the early asthmatic response: diminished
[6]; four weeks GLA supplementation, two subjects
  late asthmatic response: did not influence
[7]; 1.5 g/day GLA
  increase in release of DGLA from stimulated neutrophils: 63%
[7]; 3.0 g/day GLA
  increase in release of DGLA from stimulated neutrophils: 65%
[7]; 6.0 g/day GLA
  increase in release of DGLA from stimulated neutrophils: 69%
[7]; following GLA supplementation
  release of AA from neutrophil glycerolipids after A23187 stimulation: did not change
[8]
  DGLA in eosinophil glycerolipids: marked increase
  quantity of AA in eosinophil glycerolipids: no change
[9]; cultured neutrophils, varying concentrations of GLA complexed to albumin, 24 h
  quantity of DGLA in neutrophil glycerolipids: increased as a function of the concentration of GLA
[9]; cultured neutrophils, varying concentrations of GLA, 24 h
  quantity of AA in neutrophil phospholipids: no change
[9]; neutrophils cultured with GLA (0 to 200 nmol)
  fatty acids mobilized on A23187 stimulation: DGLA along with AA were released

## C[C@]12C=CC(=O)C=C1CC[C@@H]1[C@@H]2C(=O)C[C@@]2(C)[C@H]1CC[C@]2(O)C(=O)CO [prednisone]
[10]
  immediate response and LAR (fall in FEV1) after antigen challenge: ablated
[10]; p=0.03
  level of eosinophil cationic protein (ECP) in BALF after antigen challenge: suppressed

## CCCCC/C=C\C/C=C\C/C=C\CCCCCCC(=O)O [DGLA, dihomogammalinolenic acid]
[2]; Homo sapiens, Neutrophil
  pIC50: ~5.00

## CC/C=C\C/C=C\C/C=C\C/C=C\C/C=C\CCCC(=O)O [EPA, eicosapentaenoic acid]
[11]
  inhibition at 50 µM: 50%
